From ChEMBL document CHEMBL1201862, “PubChem BioAssay data set” (2004)
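Following 48 hours of exposure in 96-well plates, responses at five concentrations were used to interpolate endpoints linearly. GI50 marks 50% less growth.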 Active and inactive are the calls of the source. Rule as the data show it: active = GI50 up to about 1.1 µM and inactive = higher.

How the values were obtained:
Assay in all cases: inhibition of tumour cell growth, NCI panel, 48 h
[1] = test system: KM12
[2] = test system: SNB-75
[3] = test system: RXF 393
[4] = test system: A549
[5] = test system: CCRF-CEM
[6] = test system: HCT-15
[7] = test system: U-251
[8] = test system: KM-20L2
[9] = test system: HOP-62
[10] = test system: MOLT-4
[11] = test system: CAKI-1
[12] = test system: K562
[13] = test system: SF-295
[14] = test system: M19-MEL
[15] = test system: UO-31
[16] = test system: SK-MEL-28
[17] = test system: SW-620
[18] = test system: DMS-114
[19] = test system: LXFL 529
[20] = test system: HOP-92
[21] = test system: NCI-H226
[22] = test system: DLD-1
[23] = test system: UACC-62
[24] = test system: HCC 2998
[25] = test system: RXF 631
[26] = test system: RPMI-8226
[27] = test system: HL-60
[28] = test system: SR
[29] = test system: SF-268
[30] = test system: TK-10
[31] = test system: OVCAR-4
[32] = test system: DMS-273
[33] = test system: SNB-78
[34] = test system: EKVX
[35] = test system: SK-OV-3
[36] = test system: NCI-H460
[37] = test system: OVCAR-8
[38] = test system: 786-0
[39] = test system: UACC-257
[40] = test system: SF-539
[41] = test system: LOX IMVI
[42] = test system: NCI-H23
[43] = test system: SK-MEL-5
[44] = test system: HT-29
[45] = test system: OVCAR-5
[46] = test system: A498
[47] = test system: SK-MEL-2
[48] = test system: IGROV-1
[49] = test system: SNB-19
[50] = test system: NCI-H522
[51] = test system: HCT-116
[52] = test system: M14
[53] = test system: Malme-3M
[54] = test system: SN12C
[55] = test system: ACHN
[56] = test system: HOP-18
[57] = test system: COLO 205
[58] = test system: OVCAR-3
[59] = test system: XF498

Measured: GI50

CC1=Nc2ccccc2NC(c2ccoc2)C1 (centres undefined)
inactive: [1] > 100 µM | [2] > 100 µM | [3] > 100 µM | [4] > 100 µM | [5] > 100 µM | [7] > 100 µM | [8] > 100 µM | [9] > 100 µM | [10] > 100 µM | [11] > 100 µM | [12] > 100 µM | [13] > 100 µM | [14] > 100 µM | [15] > 100 µM | [16] > 100 µM | [17] > 100 µM | [18] > 100 µM | [19] > 100 µM | [20] > 100 µM | [21] > 100 µM | [22] > 100 µM | [23] > 100 µM | [24] > 100 µM | [25] > 100 µM | [26] > 100 µM | [27] > 100 µM | [28] > 100 µM | [29] > 100 µM | [30] > 100 µM | [31] > 100 µM | [32] > 100 µM | [33] > 100 µM | [34] > 100 µM | [35] > 100 µM | [36] > 100 µM | [37] > 100 µM | [38] > 100 µM | [39] > 100 µM | [40] > 100 µM | [41] > 100 µM | [42] > 100 µM | [43] > 100 µM | [44] > 100 µM | [45] > 100 µM | [46] > 100 µM | [47] > 100 µM | [48] > 100 µM | [49] > 100 µM | [50] > 100 µM | [51] > 100 µM | [52] > 100 µM | [53] > 100 µM | [54] > 100 µM | [55] > 100 µM | [56] > 100 µM | [57] > 100 µM | [58] > 100 µM
> 100 µM: [6]

O=C(/C=C/c1ccc(Cl)c(Cl)c1)C1CCC(Cl)CC1 (centres undefined)
inactive: [1] 19.2 µM | [2] 19.8 µM | [3] 17.9 µM | [4] 20 µM | [7] 15.1 µM | [8] 20.7 µM | [9] 57.3 µM | [11] 21.3 µM | [13] 21 µM | [14] 17.3 µM | [15] 18.4 µM | [16] 17.5 µM | [17] 16.9 µM | [18] 16.3 µM | [19] 18.2 µM | [20] 36.7 µM | [21] 31.2 µM | [22] 15.6 µM | [23] 17 µM | [24] 17.2 µM | [25] 18.5 µM | [26] 4.69 µM | [29] 19.5 µM | [30] 32.7 µM | [31] 17 µM | [32] 16.8 µM | [33] 21.9 µM | [34] 17.4 µM | [35] 18.1 µM | [36] 23.2 µM | [37] 18.8 µM | [38] 16.8 µM | [59] 16 µM | [39] 18.5 µM | [40] 18.4 µM | [41] 16.1 µM | [42] 17.9 µM | [43] 18.3 µM | [44] 16.3 µM | [45] 17.4 µM | [46] 22.4 µM | [48] 17.1 µM | [49] 17.7 µM | [50] 16.7 µM | [51] 11.8 µM | [52] 18.5 µM | [53] 18.5 µM | [54] 17.7 µM | [55] 17.1 µM | [56] 27.5 µM | [57] 21.8 µM | [58] 15 µM
18.2 µM: [6]

O=S(O)CCCCCSSc1ccc(Cl)cc1
inactive: [1] 20.7 µM | [2] 23.1 µM | [3] 13.8 µM | [5] 4.49 µM | [7] 10.1 µM | [9] 22.4 µM | [12] > 100 µM | [14] 28.4 µM | [15] 12.9 µM | [16] 21.6 µM | [19] 13.7 µM | [22] 21.5 µM | [24] 25.9 µM | [25] 18.9 µM | [27] 27.2 µM | [29] 10.7 µM | [30] 23.2 µM | [31] 28.7 µM | [33] 23.5 µM | [34] 39.1 µM | [35] 56 µM | [36] 36.9 µM | [59] 13.7 µM | [39] 22.5 µM | [40] 16 µM | [41] 16.4 µM | [42] 19.8 µM | [44] 26.6 µM | [45] 21.1 µM | [46] 17 µM | [47] 15.2 µM | [49] 28 µM | [50] 14.9 µM | [51] 25.2 µM | [52] 22.7 µM | [53] 23 µM | [54] 16 µM | [58] 15.6 µM
